Laboratory results reported in US6211182A, “Imidazole compounds substituted with a six or seven membered heterocyclic ring containing two nitrogen atoms” (Schering Corporation, priority 1999, dated 2001).
pKi: −log10 of the molar value.

Biological target: T1, H3 receptor (Cavia porcellus, UniProt Q9JI35)
T1 construct: The source of the H3 receptors in this experiment was guinea pig brain; from tissue; host or cells: guinea pig brain membranes
Assay: H3 Receptor Binding Assay (guinea pig brain membranes, [3H]R-α-methylhistamine or [3H]-N-methylhistamine)
Conditions: 3 nM radioligand, 30° C., 30 min
Method: Procedure for H3 Receptor Binding Assay
The source of the H3 receptors in this experiment was guinea pig brain. The animals used weighed 400-600 g. The tissue was homogenized using a Polytron in a solution of 50 mM Tris, pH 7.5. The final concentration of tissue in the homogenization buffer was 10% w/v. The homogenates were centrifuged at 1000×g for 10 min. in order to remove clumps of tissue and debris. The resulting supernatants were then centrifuged at 50,000×g for 20 min. in order to sediment the membranes, which were next washed 3 times in homogenization buffer (50,000×g for 20 min. each). The membranes were frozen and stored at -70° C. until needed.
All compounds to be tested were dissolved in DMSO and then diluted into the binding buffer (50 mM Tris, pH 7.5) such that the final concentration was 2 μg/mL with 0.1% DMSO. Membranes were then added (400 μg of protein) to the reaction tubes. The reaction was started by the addition of 3 nM [^3 H]R-α-methylhistamine (8.8 Ci/mmol) or [^3 H]-N-methylhistamine (80 Ci/mmol) and incubated at 30° C. for 30 min. Bound ligand was separated from unbound ligand by filtration, and the amount of radioactive ligand bound to the membranes was quantitated by liquid scintillation spectrometry. All incubations were performed in duplicate and the standard error was less than 10% in all instances.

T1 sequence (Q9JI35 whole entry): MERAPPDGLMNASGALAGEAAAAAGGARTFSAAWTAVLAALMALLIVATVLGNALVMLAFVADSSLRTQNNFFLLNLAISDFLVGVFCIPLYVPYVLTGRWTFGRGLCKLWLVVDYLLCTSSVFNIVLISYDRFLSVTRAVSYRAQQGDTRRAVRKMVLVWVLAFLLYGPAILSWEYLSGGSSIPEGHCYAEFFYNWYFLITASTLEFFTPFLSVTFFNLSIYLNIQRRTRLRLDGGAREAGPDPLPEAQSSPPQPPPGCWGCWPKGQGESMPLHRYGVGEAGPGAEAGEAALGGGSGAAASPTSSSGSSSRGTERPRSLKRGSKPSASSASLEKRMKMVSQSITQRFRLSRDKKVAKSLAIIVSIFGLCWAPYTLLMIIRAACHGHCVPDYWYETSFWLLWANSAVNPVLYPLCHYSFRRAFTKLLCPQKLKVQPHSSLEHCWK

| Compound | pKi |
| --- | --- |
| O=C(NCCCCc1c[nH]cn1)C1CN(Cc2ccc(Cl)cc2)CCN1 (stereo not drawn) | 7.34 |
| O=C(/C=C/c1ccccc1)N1CCN(CCCCc2c[nH]cn2)CC1 | 8.22 |
| O=C(/C=C/c1cccnc1)N1CCN(CCCCc2c[nH]cn2)CC1 | 7.60 |
| Clc1ccc(CN2CCN(Cc3ccc(Cl)cc3)C(CCc3c[nH]cn3)C2)cc1 (stereo not drawn) | 7.35 |
| O=C(NCCCCc1c[nH]cn1)C1CNCCN1Cc1ccc(Cl)cc1 (stereo not drawn) | 7.42 |
| CCOC(=O)C1CNCCN1CCCCc1c[nH]cn1 (stereo not drawn) | 7.49 |
| CCOC(=O)C1CN(CCCCc2c[nH]cn2)CCN1Cc1ccc(Cl)cc1 (stereo not drawn) | 7.34 |

The next lines start with the values.

| pKi | Compound |
| --- | --- |
| 7.41 | O=C(NCCCCCc1c[nH]cn1)C1CNCCN1 (stereo not drawn) |
| 7.70 | O=C(NCCCCc1c[nH]cn1)C1CN(Cc2ccc(Cl)cc2)CCN1Cc1ccc(Cl)cc1 (stereo not drawn) |
| 8.22 | O=C(Nc1cccc(Cl)c1)N1CCN(CCCCc2c[nH]cn2)CC1 |
| 7.85 | O=C(Nc1ccc(C(F)(F)F)cc1)N1CCN(CCCCc2c[nH]cn2)CC1 |

Same assay, conditions: unit given as mM

| Ki [nM] | Compound |
| --- | --- |
| 26 | CCOC(=O)C1CN(Cc2ccc(Cl)cc2)CCN1CCCCc1c[nH]cn1 (stereo not drawn) |

Test system: rat
Assay: not given
Conditions: Clapham et al. 1993; cited from earlier work

| Compound | short-term memory and reversal learning |
| --- | --- |
| S=C(NC1CCCCC1)N1CCC(c2cnc[nH]2)CC1 [thioperamide] | can improve short-term memory and reversal learning in the rat |

Test system: mice
Assay: not given
Conditions: Yokoyama et al. 1993; cited from earlier work

| Compound | duration of each phase of convulsion | electroconvulsive threshold |
| --- | --- | --- |
| S=C(NC1CCCCC1)N1CCC(c2cnc[nH]2)CC1 [thioperamide] | decreased the duration of each phase of convulsion | raised the electroconvulsive threshold |
